Experimental findings from US6964952B2, “Therapeutic composition for broad spectrum dermal disease” (Doosan Corporation, priority 2001, dated 2005) are described below.

One data set deals with protein kinase C (PKC). Kind of data set: Inhibition of protein kinase C in mouse epidermal cell line Pam212. The class given is cell-based. The following applies: Pam212 cells treated at 100 μM and 400 μM; FIG. 6. The method, then:
An anti-inflammation effect of the cream composition according to the invention was evaluated by assessing inhibition of protein kinase C (PKC) in mouse epidermal cell line (Pam212). The cultured epidermal cells at 2×10^7 cells/ml were treated with phytosphingosine or derivatives thereof at final concentrations of 100 μM, and 400 μM. After washing with PBS, the cells were disrupted using a homogenizer and centrifuged. The supernatant was passed through a DE52 column to obtain a fraction containing PKC. To measure the amount of activated PKC in the fractions, 5 μl each of a PKC coactivation 5× buffer, PKC activation 5× buffer, PKC biotinylated peptide substrate and ^32P-ATP mixture were added to a tube. For a negative control, 5 μl each of a PKC coactivation 5× buffer, Control 5× buffer, PKC biotinylated peptide substrate and ^32P-ATP mixture were measured. To the tubes were added 5 μl of respective PKC fractions. The reaction was performed at 30° C. for 5 min. After terminating the reaction by adding a 12.5 μl stop solution, a 10 μl aliquot was dropped on a SAM^2™ membrane. The membrane was washed 1× with 2M NaCl for 30 sec, 3× with 2M NaCl for 2 min, 4× with a solution of 1% H3PO4 and 2M NaCl for 2 min, and 2× with distilled water for 30 sec, followed by drying. Radioactivity was measured to examine a PKC inhibition effect.

For data set [1], the system named is full-thickness circular ear wounds. Kind of data set: Wound repair in rabbits (6 mm punch wounds in ears). The class given is in vivo, New Zealand White rabbits. Conditions: rabbit ear wounds; 5, 10, 50 μM, 10 μl every second day; FIG. 3. As for the experimental part: As an experimental animal model, female New Zealand White rabbits (2 kg in body weight) were employed to evaluate the efficacy of phytosphingosine and derivatives thereof on wound healing.
The rabbits were anesthetized with an intramuscular injection of ketamine (3 to 4 mg/kg). After removing hairs and a horny layer (stratum corneum) inside the both ears, 4 full-thickness circular wounds were created in each ear using a 6 mm-punch biopsy. As a control, PBS solution containing 0.1% BSA was applied to the wound regions at an amount of 10 μl every second day. For test groups, a composition comprising lysophosphatidic acid only, a composition comprising sphingolipid long-chain base only, and a composition comprising a combination thereof were applied each at varying concentrations (5 μM, 10 μM and 50 μM) at a volume of 10 μl every second day. The wounds applied with those agents were sealed with Cathreep (Nichiban Co., Japan). On 4th and 8th day after application, the rabbits were sacrificed, and the wound areas were histologically examined.

Another data set has as its system Langerhans cells. The data set is described as follows: Effect on number of Langerhans cells in skin explant. It is filed as cell-based. The following applies: 1% test sample. As for the experimental part:
Langerhans cells play a role in mediating immune response of the skin. Treatment of skin disorders related to a hypersensitive immune response can be accomplished by regulating either the number or the antigen-presenting ability of Langerhans cells. To examine the efficacy of sphingolipid long-chain base on the regulation of the number of Langerhans cells, a test was performed as follows. Each skin explant was applied with a 1% test sample containing sphingolipid.

Data set [2] relates to human skin fibroblasts. It is filed as cell-based.
The test system of data set [3] is human skin fibroblasts. The data set is described as follows: Tracing metabolic pathway in human skin fibroblasts (TLC of lipid extracts). It is filed as in vitro ADME. The following applies: 20 μM, 48 hrs. The method, then: Human skin fibroblasts were employed as the cell line for the study. Phytosphingosine, tetraacetyl phytosphingosine, and acetyl phytosphingosine were respectively dissolved in a mixture of ethanol/dodecane, preparing stock solutions at certain concentrations. When the fibroblasts became confluent in 7 cm diameter culture dishes, 20 μM of the respective test samples was added and cultured in a CO2 incubator for 48 hrs. Cells were harvested and treated according to a common extraction method for sphingolipids. Hydrolysis was performed under basic conditions at 37° C. overnight. The samples were passed through a reverse phase column to remove salts. The desalted lipid extracts were subjected to a TLC analysis on Silica gel 60 G plates (Merck, Germany), using chloroform/methanol/concentrated acetic acid (190/9/1) to elute neutral lipids.

Consider `CCCCCCCCCCCCCC[C@@H](O)[C@@H](O)[C@H](CO)NC(C)=O` [N-acetyl phytosphingosine], for which, in the data set with protein kinase C (PKC), the PKC inhibition effect result is reported as “excellent PKC inhibition effects”.
As for `CCCCCCCCCCCCCC[C@@H](O)[C@@H](O)[C@@H](N)CO` [phytosphingosine], in data set [1], the “Rates of wound healing (%) compared to untreated control group” value is “highly accelerate the rates of wound healing”. Besides, the “Efficacy on reducing the number of Langerhans cells (comparison)” value in the data set with Langerhans cells is reported as “greater than that of tetraacetyl phytosphingosine”. Also, in the data set with protein kinase C (PKC), the PKC inhibition effect entry is “excellent PKC inhibition effects”.
On to lysophosphatidic acid, for which the “Rates of wound healing (%) compared to untreated control group” value in data set [1] was “highly accelerate the rates of wound healing”.
In the case of tetraacetyl phytosphingosine, in the data set on protein kinase C (PKC), the PKC inhibition effect entry is reported as “excellent PKC inhibition effects”. Moreover, the “Cytotoxicity relative to other sphingolipid long-chain bases” value in the data set with human skin fibroblasts [2] is “lower cytotoxicity than other sphingolipid long-chain bases”. Besides, the “Metabolic conversion within the cells” value in the data set on human skin fibroblasts [3] is “converted to C2-phytoceramide”.
